Experiments:
HCV genotype 1b replicon = assay: HCV replicon assay, genotype 1b replicon EC50; assay type: cell-based, Hepatitis C virus; conditions: Hepatitis C virus, genotype 1b replicon; read-out: EC50 [gt-1b]
In short: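 Cells harbouring a stable replicon are grown under G418 selection, then plated with test compound in G418-free medium for 24-48 hours. After washing and lysis, RNA or luciferase signal is measured and expressed as percent of DMSO control to give EC50.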

[1] = biological target: HCV NS3/4A protease genotype 1b (Hepatitis C virus genotype 1b, UniProt P26663); assay: HCV NS3/4A protease time-resolved fluorescence (TRF) assay, Ki against genotype 1b; assay type: biochemical; conditions: IC50 [gt-1b] (nM), NS3/4A genotype 1b, enzyme 0.2 nM
In short: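 Ki was converted from fitted IC50 using IC50=Ki(1+[S]/KM) and 25 nM substrate. Protease (genotype 1b 0.2 nM, A156T 0.4 nM, 3a 0.025 nM) and compound were pre-mixed 30 min in pH 7.5 HEPES/NaCl/glycerol/DTT buffer. Cleavage then proceeded 2.5 h at room temperature, detected by time-resolved europium fluorescence (340/615 nm).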

SMILES | EC50 (HCV genotype 1b replicon) [nM] | IC50 [1] [nM]
CC1(OC(=O)N[C@H]2CCCCC/C=C\[C@@H]3C[C@@]3(C(=O)NS(=O)(=O)C3(C)CC3)NC(=O)[C@@H]3C[C@]4(CCc5c(c(C6CC6)nc6c(F)cccc56)O4)CN3C2=O)CC1 [Example 168, 1-methylcyclopropyl [(2R,6S,12Z,13aS,14aR,16aS)-5′-cyclopropyl-7′-fluoro-14a-{[(1-methylcyclopropyl)sulfonyl]carbamoyl}-5,16-dioxo-1,1′,2′,5,6,7,8,9,10,11,13a,14,14a,15,16,16a-hexadecahydrospiro[cyclopropa[e]pyrrolo[1,2-a][1,4]diazacyclopentadecine-2,3′-pyrano[2,3-c]quinolin]-6-yl]carbamate] | 3.73 | 0.013
COc1ccc2nc(C(C)C)c3c(c2c1)CC[C@]1(C[C@H]2C(=O)N[C@]4(C(=O)NS(=O)(=O)C5(C)CC5)C[C@H]4/C=C\CCCCC[C@H](NC(=O)OC4(C)CCC4)C(=O)N2C1)O3 [Example 169, 1-methylcyclobutyl [(2R,6S,12Z,13aS,14aR,16aS)-9′-methoxy-14a-{[(1-methylcyclopropyl)sulfonyl]carbamoyl}-5,16-dioxo-5′-(propan-2-yl)-1,1′,2′,5,6,7,8,9,10,11,13a,14,14a,15,16,16a-hexadecahydrospiro[cyclopropa[e]pyrrolo[1,2-a][1,4]diazacyclopentadecine-2,3′-pyrano[2,3-c]quinolin]-6-yl]carbamate] | 1.53 | 0.019
COc1ccc2nc(C3CCC3)c3c(c2c1)CC[C@]1(C[C@H]2C(=O)N[C@]4(C(=O)NS(=O)(=O)C5(C)CC5)C[C@H]4/C=C\CCCCC[C@H](NC(=O)OC4CCCC4)C(=O)N2C1)O3 [Example 170, cyclopentyl [(2R,6S,12Z,13aS,14aR,16aS)-5′-cyclobutyl-9′-methoxy-14a-{[(1-methylcyclopropyl)sulfonyl]carbamoyl}-5,16-dioxo-1,1′,2′,5,6,7,8,9,10,11,13a,14,14a,15,16,16a-hexadecahydrospiro[cyclopropa[e]pyrrolo[1,2-a][1,4]diazacyclopentadecine-2,3′-pyrano[2,3-c]quinolin]-6-yl]carbamate] | 2.65 | 0.013
COc1ccc2nc(C3CCC3)c3c(c2c1)CC[C@]1(C[C@H]2C(=O)N[C@]4(C(=O)NS(=O)(=O)C5(C)CC5)C[C@H]4/C=C\CCCCC[C@H](NC(=O)OCC(C)C)C(=O)N2C1)O3 [Example 171, 2-methylpropyl [(2R,6S,12Z,13aS,14aR,16aS)-5′-cyclobutyl-9′-methoxy-14a-{[(1-methylcyclopropyl)sulfonyl]carbamoyl}-5,16-dioxo-1,1′,2′,5,6,7,8,9,10,11,13a,14,14a,15,16,16a-hexadecahydrospiro[cyclopropa[e]pyrrolo[1,2-a][1,4]diazacyclopentadecine-2,3′-pyrano[2,3-c]quinolin]-6-yl]carbamate] | 1.62 | 0.013
Cc1nc2ccccc2c2c1O[C@]1(CC2)C[C@H]2C(=O)N[C@]3(C(=O)NS(=O)(=O)C4(C)CC4)C[C@H]3/C=C\CCCCC[C@H](NCCc3ccccc3)C(=O)N2C1 [Example 172, (2R,6S,12Z,13aS,14aR,16aS)-5′-methyl-N-[(1-methylcyclopropyl)sulfonyl]-5,16-dioxo-6-[(2-phenylethyl)amino]-1,1′,2′,6,7,8,9,10,11,13a,14,15,16,16a-tetradecahydrospiro[cyclopropa[e]pyrrolo[1,2-a][1,4]diazacyclopentadecine-2,3′-pyrano[2,3-c]quinoline]-14a(5H)-carboxamide] | 7.99 | 0.24
Cc1nc2ccccc2c2c1O[C@]1(CC2)C[C@H]2C(=O)N[C@]3(C(=O)NS(=O)(=O)C4(C)CC4)C[C@H]3/C=C\CCCCC[C@H](N(CCc3ccccc3)CCc3ccccc3)C(=O)N2C1 [Example 173, (2R,6S,12Z,13aS,14aR,16aS)-6-[bis(2-phenylethyl)amino]-5′-methyl-N-[(1-methylcyclopropyl)sulfonyl]-5,16-dioxo-1,1′,2′,6,7,8,9,10,11,13a,14,15,16,16a-tetradecahydrospiro[cyclopropa[e]pyrrolo[1,2-a][1,4]diazacyclopentadecine-2,3′-pyrano[2,3-c]quinoline]-14a(5H)-carboxamide] | > 100 | 6.27
Cc1nc2ccc(OC(F)(F)F)cc2c2c1O[C@]1(CC2)C[C@H]2C(=O)N[C@]3(C(=O)NS(=O)(=O)C4(C)CC4)C[C@H]3/C=C\CCCCC[C@H](NC(=O)OC3(C)CCC3)C(=O)N2C1 [Example 174, 1-methylcyclobutyl [(2R,6S,12Z,13aS,14aR,16aS)-5′-methyl-14a-{[(1-methylcyclopropyl)sulfonyl]carbamoyl}-5,16-dioxo-9′-(trifluoromethoxy)-1,1′,2′,5,6,7,8,9,10,11,13a,14,14a,15,16,16a-hexadecahydrospiro[cyclopropa[e]pyrrolo[1,2-a][1,4]diazacyclopentadecine-2,3′-pyrano[2,3-c]quinolin]-6-yl]carbamate] | 2.33 | 0.007
CC1(S(=O)(=O)NC(=O)[C@@]23C[C@H]2/C=C\CCCCC[C@H](NC(=O)OC2CCC2)C(=O)N2C[C@@]4(CCc5c(c(C6CC6)nc6c(F)cccc56)O4)C[C@H]2C(=O)N3)CC1 [Example 175, cyclobutyl [(2R,6S,12Z,13aS,14aR,16aS)-5′-cyclopropyl-7′-fluoro-14a-{[(1-methylcyclopropyl)sulfonyl]carbamoyl}-5,16-dioxo-1,1′,2′,5,6,7,8,9,10,11,13a,14,14a,15,16,16a-hexadecahydrospiro[cyclopropa[e]pyrrolo[1,2-a][1,4]diazacyclopentadecine-2,3′-pyrano[2,3-c]quinolin]-6-yl]carbamate] | 1.67 | 0.028
CC1(OC(=O)N[C@H]2CCCCC/C=C\[C@@H]3C[C@@]3(C(=O)NS(=O)(=O)C3(C)CC3)NC(=O)[C@@H]3C[C@]4(CCc5c(c(C6CC6)nc6c(F)cccc56)O4)CN3C2=O)CCCCC1 [Example 176, 1-methylcyclohexyl [(2R,6S,12Z,13aS,14aR,16aS)-5′-cyclopropyl-7′-fluoro-14a-{[(1-methylcyclopropyl)sulfonyl]carbamoyl}-5,16-dioxo-1,1′,2′,5,6,7,8,9,10,11,13a,14,14a,15,16,16a-hexadecahydrospiro[cyclopropa[e]pyrrolo[1,2-a][1,4]diazacyclopentadecine-2,3′-pyrano[2,3-c]quinolin]-6-yl]carbamate] | 2.26 | 0.026
Cc1nc2ccc(OC(F)(F)F)cc2c2c1O[C@]1(CC2)C[C@H]2C(=O)N[C@]3(C(=O)NS(=O)(=O)C4(C)CC4)C[C@H]3/C=C\CCCCC[C@H](NC(=O)OCC3COC3)C(=O)N2C1 [Example 177, oxetan-3-ylmethyl [(2R,6S,12Z,13aS,14aR,16aS)-5′-methyl-14a-{[(1-methylcyclopropyl)sulfonyl]carbamoyl}-5,16-dioxo-9′-(trifluoromethoxy)-1,1′,2′,5,6,7,8,9,10,11,13a,14,14a,15,16,16a-hexadecahydrospiro[cyclopropa[e]pyrrolo[1,2-a][1,4]diazacyclopentadecine-2,3′-pyrano[2,3-c]quinolin]-6-yl]carbamate] | 21.9 | 0.011
COc1ccc2nc(C(C)C)c3c(c2c1)CC[C@]1(C[C@H]2C(=O)N[C@]4(C(=O)NS(=O)(=O)C5(C)CC5)C[C@H]4/C=C\CCCCC[C@H](NC(=O)OCC4COC4)C(=O)N2C1)O3 [Example 178, oxetan-3-ylmethyl [(2R,6S,12Z,13aS,14aR,16aS)-9′-methoxy-14a-{[(1-methylcyclopropyl)sulfonyl]carbamoyl}-5,16-dioxo-5′-(propan-2-yl)-1,1′,2′,5,6,7,8,9,10,11,13a,14,14a,15,16,16a-hexadecahydrospiro[cyclopropa[e]pyrrolo[1,2-a][1,4]diazacyclopentadecine-2,3′-pyrano[2,3-c]quinolin]-6-yl]carbamate] | 11.1 | 0.007
Cc1nc2ccccc2c2c1O[C@]1(CC2)C[C@H]2C(=O)N[C@]3(C(=O)NS(=O)(=O)C4(C)CC4)C[C@H]3/C=C\CCCCC[C@H](NC(=O)O[C@@H]3C[C@H]4CC[C@@H]3C4)C(=O)N2C1 [Example 179, (1R,2R,4S)-bicyclo[2.2.1]hept-2-yl [(2R,6S,12Z,13aS,14aR,16aS)-5′-methyl-14a-{[(1-methylcyclopropyl)sulfonyl]carbamoyl}-5,16-dioxo-1,1′,2′,5,6,7,8,9,10,11,13a,14,14a,15,16,16a-hexadecahydrospiro[cyclopropa[e]pyrrolo[1,2-a][1,4]diazacyclopentadecine-2,3′-pyrano[2,3-c]quinolin]-6-yl]carbamate] | 0.2 | 0.012
Cc1nc2ccc(OC(F)(F)F)cc2c2c1O[C@]1(CC2)C[C@H]2C(=O)N[C@]3(C(=O)NS(=O)(=O)C4(C)CC4)C[C@H]3/C=C\CCCCC[C@H](NC(=O)OC3CCC3)C(=O)N2C1 [Example 180, cyclobutyl [(2R,6S,12Z,13aS,14aR,16aS)-5′-methyl-14a-{[(1-methylcyclopropyl)sulfonyl]carbamoyl}-5,16-dioxo-9′-(trifluoromethoxy)-1,1′,2′,5,6,7,8,9,10,11,13a,14,14a,15,16,16a-hexadecahydrospiro[cyclopropa[e]pyrrolo[1,2-a][1,4]diazacyclopentadecine-2,3′-pyrano[2,3-c]quinolin]-6-yl]carbamate] | 1.72 | 0.012

— patent US8987195B2 (priority 2012, dated 2015)
